Experimental data reported in the NIST ThermoML archive (doi:10.1021/je800100m).
Numbers after ± are expanded uncertainties.

What was measured:
[1] = Liquid; for speed of sound: 101.3 kPa, Sing-around technique in a fixed-path interferometer; for mass density: 101.33 kPa, Pycnometric method
[2] = xn = mol fraction of the nth substance listed; details: 308.15 K, 101 kPa, Liquid, Sing-around technique in a fixed-path interferometer

Cc1ccccc1 [toluene]
speed of sound ([1]; 298.15 K): 1304.6 ± 5.4 m/s | mass density ([1]; 298.15 K): 862.21 ± 5.4 kg/m3

Cc1ccccc1N [2-methylaniline]
mass density ([1]; 298.15 K): 994.28 ± 7.2 kg/m3 | speed of sound ([1]; 308.15 K): 1603 ± 5 m/s

Cc1ccccc1N [2-methylaniline] + Cc1ccccc1C
speed of sound ([2]; x1 = 0.0799): 1325 ± 5 m/s | speed of sound ([2]; x1 = 0.1313): 1328 ± 5 m/s | speed of sound ([2]; x1 = 0.1977): 1333 ± 5 m/s | speed of sound ([2]; x1 = 0.2507): 1338 ± 5 m/s | speed of sound ([2]; x1 = 0.3003): 1345 ± 5 m/s | speed of sound ([2]; x1 = 0.3663): 1355 ± 5 m/s | speed of sound ([2]; x1 = 0.4456): 1370 ± 5 m/s | speed of sound ([2]; x1 = 0.508): 1385 ± 5 m/s | speed of sound ([2]; x1 = 0.5892): 1408 ± 5 m/s | speed of sound ([2]; x1 = 0.6666): 1434 ± 5 m/s | speed of sound ([2]; x1 = 0.7287): 1459 ± 5 m/s | speed of sound ([2]; x1 = 0.7884): 1485 ± 5 m/s | speed of sound ([2]; x1 = 0.8314): 1505 ± 5 m/s | speed of sound ([2]; x1 = 0.909): 1547 ± 5 m/s

Cc1ccccc1C [1,2-dimethylbenzene]
speed of sound ([1]; 298.15 K): 1344 ± 5.4 m/s | mass density ([1]; 298.15 K): 875.99 ± 5.6 kg/m3

Cc1ccccc1N [2-methylaniline] + Cc1ccc(C)cc1
speed of sound ([2]; x1 = 0.0534): 1287 ± 5 m/s | speed of sound ([2]; x1 = 0.1009): 1295 ± 5 m/s | speed of sound ([2]; x1 = 0.1707): 1308 ± 5 m/s | speed of sound ([2]; x1 = 0.2483): 1325 ± 5 m/s | speed of sound ([2]; x1 = 0.32): 1342 ± 5 m/s | speed of sound ([2]; x1 = 0.3949): 1361 ± 5 m/s | speed of sound ([2]; x1 = 0.4559): 1378 ± 5 m/s | speed of sound ([2]; x1 = 0.5332): 1402 ± 5 m/s | speed of sound ([2]; x1 = 0.6007): 1423 ± 5 m/s | speed of sound ([2]; x1 = 0.6897): 1455 ± 5 m/s | speed of sound ([2]; x1 = 0.7417): 1475 ± 5 m/s | speed of sound ([2]; x1 = 0.8009): 1500 ± 5 m/s | speed of sound ([2]; x1 = 0.8668): 1530 ± 5 m/s | speed of sound ([2]; x1 = 0.9374): 1567 ± 5 m/s

Cc1ccc(C)cc1 [1,4-dimethylbenzene]
speed of sound ([1]; 298.15 K): 1310.1 ± 5.4 m/s | mass density ([1]; 298.15 K): 856.58 ± 5.3 kg/m3

Cc1ccccc1N [2-methylaniline] + Cc1ccccc1
speed of sound ([2]; x1 = 0.0457): 1270 ± 5 m/s | speed of sound ([2]; x1 = 0.0998): 1283 ± 5 m/s | speed of sound ([2]; x1 = 0.1516): 1296 ± 5 m/s | speed of sound ([2]; x1 = 0.2017): 1308 ± 5 m/s | speed of sound ([2]; x1 = 0.2773): 1327 ± 5 m/s | speed of sound ([2]; x1 = 0.3496): 1346 ± 5 m/s | speed of sound ([2]; x1 = 0.407): 1359 ± 5 m/s | speed of sound ([2]; x1 = 0.4797): 1381 ± 5 m/s | speed of sound ([2]; x1 = 0.5882): 1414 ± 5 m/s | speed of sound ([2]; x1 = 0.6667): 1440 ± 5 m/s | speed of sound ([2]; x1 = 0.7464): 1470 ± 5 m/s | speed of sound ([2]; x1 = 0.8033): 1494 ± 5 m/s | speed of sound ([2]; x1 = 0.8647): 1523 ± 5 m/s | speed of sound ([2]; x1 = 0.9223): 1554 ± 5 m/s
